The values that follow come from article PMC3000536 (Tetrahedron letters, 2011).

Structures are written as SMILES.

Assay [1] deals with Bovine liver β-Galactosidase. The assay is described as follows: Glycosidase inhibition, bovine liver β-galactosidase. It is filed as biochemical. To be noted: read-out: IC50 β-Galactosidase Bovine liver.
The next assay concerns the target Rat intestinal maltase. The assay is described as follows: Glycosidase inhibition, rat intestinal maltase. It is filed as biochemical. To be noted: read-out: IC50 α-Glucosidase Rat intestinal maltase.
For another assay, the target named is Snail β-Mannosidase. The assay is described as follows: Glycosidase inhibition, snail β-mannosidase. It counts as biochemical. The following applies: read-out: IC50 β-Mannosidase Snail.
The next assay deals with Almond β-Glucosidase. The assay is described as follows: Glycosidase inhibition, almond β-glucosidase. It counts as biochemical. The following applies: read-out: IC50 β-Glucosidase Almond.
Assay [2] deals with T1, Rabbit muscle Glycogen phosphorylase (Oryctolagus cuniculus, UniProt P00489).
T1 sequence (P00489 1-843): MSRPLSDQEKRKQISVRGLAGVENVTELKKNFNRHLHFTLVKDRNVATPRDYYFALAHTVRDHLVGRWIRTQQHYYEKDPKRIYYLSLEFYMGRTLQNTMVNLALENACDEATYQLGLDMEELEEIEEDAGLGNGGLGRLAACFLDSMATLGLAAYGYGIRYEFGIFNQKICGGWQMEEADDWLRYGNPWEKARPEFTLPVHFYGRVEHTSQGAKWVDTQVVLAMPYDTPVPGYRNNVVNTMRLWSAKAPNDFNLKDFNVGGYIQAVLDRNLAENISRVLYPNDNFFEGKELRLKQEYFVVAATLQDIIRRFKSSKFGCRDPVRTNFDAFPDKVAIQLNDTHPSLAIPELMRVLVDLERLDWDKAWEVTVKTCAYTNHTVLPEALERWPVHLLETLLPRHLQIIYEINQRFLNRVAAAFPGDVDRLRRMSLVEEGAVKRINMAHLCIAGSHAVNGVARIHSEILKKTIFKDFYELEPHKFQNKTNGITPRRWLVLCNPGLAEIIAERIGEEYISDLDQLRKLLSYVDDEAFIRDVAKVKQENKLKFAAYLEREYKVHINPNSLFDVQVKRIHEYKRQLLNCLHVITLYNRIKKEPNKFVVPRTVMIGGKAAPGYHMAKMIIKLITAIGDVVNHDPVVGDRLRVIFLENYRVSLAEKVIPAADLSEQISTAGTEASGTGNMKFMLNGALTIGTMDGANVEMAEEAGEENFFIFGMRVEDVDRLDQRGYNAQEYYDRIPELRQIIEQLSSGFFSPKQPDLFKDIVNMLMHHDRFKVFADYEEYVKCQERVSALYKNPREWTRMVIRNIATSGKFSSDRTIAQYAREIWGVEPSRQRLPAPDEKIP
The assay is described as follows: Glycogen phosphorylase inhibition, rabbit muscle. It counts as biochemical.

The target of assay [3] is Rat intestinal isomaltase (Rattus norvegicus, UniProt P23739). The experiment in a line: Glycosidase inhibition, rat intestinal isomaltase. It is filed as biochemical.
Chain of Rat intestinal isomaltase (P23739 whole entry): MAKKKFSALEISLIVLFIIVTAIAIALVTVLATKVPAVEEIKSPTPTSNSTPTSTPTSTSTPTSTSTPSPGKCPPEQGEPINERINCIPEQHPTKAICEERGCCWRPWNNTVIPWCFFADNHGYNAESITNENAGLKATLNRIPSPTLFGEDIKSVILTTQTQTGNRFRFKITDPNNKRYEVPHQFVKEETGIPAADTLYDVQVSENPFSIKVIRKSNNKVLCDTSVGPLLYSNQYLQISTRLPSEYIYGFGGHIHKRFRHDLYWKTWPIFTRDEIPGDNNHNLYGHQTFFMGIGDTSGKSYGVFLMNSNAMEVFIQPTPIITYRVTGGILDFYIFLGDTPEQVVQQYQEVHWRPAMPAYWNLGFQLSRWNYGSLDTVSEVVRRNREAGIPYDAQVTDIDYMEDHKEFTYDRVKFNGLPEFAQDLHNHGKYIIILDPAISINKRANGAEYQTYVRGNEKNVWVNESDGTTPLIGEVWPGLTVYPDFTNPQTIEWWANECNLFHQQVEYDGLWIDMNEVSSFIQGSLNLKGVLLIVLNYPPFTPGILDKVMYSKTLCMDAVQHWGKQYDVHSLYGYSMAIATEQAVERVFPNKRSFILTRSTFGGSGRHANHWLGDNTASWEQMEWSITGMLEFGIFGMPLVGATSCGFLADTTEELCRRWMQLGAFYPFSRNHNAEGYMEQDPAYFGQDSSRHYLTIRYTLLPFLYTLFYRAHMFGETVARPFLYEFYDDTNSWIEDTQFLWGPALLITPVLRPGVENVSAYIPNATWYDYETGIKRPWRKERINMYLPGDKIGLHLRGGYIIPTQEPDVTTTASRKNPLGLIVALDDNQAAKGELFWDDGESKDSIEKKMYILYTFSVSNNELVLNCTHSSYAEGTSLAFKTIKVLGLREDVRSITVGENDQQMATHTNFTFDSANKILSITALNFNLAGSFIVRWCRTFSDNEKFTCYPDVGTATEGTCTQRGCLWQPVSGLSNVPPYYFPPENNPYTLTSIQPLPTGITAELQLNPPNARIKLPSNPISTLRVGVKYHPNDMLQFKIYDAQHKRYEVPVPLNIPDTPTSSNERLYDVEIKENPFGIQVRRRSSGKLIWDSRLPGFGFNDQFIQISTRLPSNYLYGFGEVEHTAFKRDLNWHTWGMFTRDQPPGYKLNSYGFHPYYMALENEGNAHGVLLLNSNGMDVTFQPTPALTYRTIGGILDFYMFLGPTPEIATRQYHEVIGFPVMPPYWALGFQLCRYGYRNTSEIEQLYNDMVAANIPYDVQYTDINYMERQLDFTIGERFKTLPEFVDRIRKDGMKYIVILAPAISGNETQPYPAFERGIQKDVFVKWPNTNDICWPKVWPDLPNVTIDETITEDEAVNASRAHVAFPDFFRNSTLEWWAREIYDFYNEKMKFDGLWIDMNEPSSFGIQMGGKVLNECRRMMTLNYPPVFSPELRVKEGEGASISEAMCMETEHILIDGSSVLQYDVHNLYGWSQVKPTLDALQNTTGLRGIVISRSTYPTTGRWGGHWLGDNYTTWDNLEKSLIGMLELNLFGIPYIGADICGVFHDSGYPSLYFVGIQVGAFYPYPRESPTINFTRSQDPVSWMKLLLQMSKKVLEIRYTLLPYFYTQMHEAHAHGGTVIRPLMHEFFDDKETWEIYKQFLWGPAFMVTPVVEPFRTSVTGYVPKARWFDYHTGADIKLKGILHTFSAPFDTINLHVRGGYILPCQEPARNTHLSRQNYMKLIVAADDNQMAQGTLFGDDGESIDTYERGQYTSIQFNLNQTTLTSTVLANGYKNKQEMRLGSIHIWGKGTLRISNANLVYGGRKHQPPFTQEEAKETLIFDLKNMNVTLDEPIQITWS
The next assay deals with Rat intestinal sucrase (Rattus norvegicus, UniProt P23739). The assay is described as follows: Glycosidase inhibition and kinetic analysis, rat intestinal sucrase. The following applies: for Mode of inhibition of rat intestinal sucrase: kinetic analysis.
Chain of Rat intestinal sucrase (P23739 whole entry): as above
The target in a further assay is T2, Rat intestinal lactase (Rattus norvegicus, UniProt Q02401).
T2 sequence (Q02401 868-1928): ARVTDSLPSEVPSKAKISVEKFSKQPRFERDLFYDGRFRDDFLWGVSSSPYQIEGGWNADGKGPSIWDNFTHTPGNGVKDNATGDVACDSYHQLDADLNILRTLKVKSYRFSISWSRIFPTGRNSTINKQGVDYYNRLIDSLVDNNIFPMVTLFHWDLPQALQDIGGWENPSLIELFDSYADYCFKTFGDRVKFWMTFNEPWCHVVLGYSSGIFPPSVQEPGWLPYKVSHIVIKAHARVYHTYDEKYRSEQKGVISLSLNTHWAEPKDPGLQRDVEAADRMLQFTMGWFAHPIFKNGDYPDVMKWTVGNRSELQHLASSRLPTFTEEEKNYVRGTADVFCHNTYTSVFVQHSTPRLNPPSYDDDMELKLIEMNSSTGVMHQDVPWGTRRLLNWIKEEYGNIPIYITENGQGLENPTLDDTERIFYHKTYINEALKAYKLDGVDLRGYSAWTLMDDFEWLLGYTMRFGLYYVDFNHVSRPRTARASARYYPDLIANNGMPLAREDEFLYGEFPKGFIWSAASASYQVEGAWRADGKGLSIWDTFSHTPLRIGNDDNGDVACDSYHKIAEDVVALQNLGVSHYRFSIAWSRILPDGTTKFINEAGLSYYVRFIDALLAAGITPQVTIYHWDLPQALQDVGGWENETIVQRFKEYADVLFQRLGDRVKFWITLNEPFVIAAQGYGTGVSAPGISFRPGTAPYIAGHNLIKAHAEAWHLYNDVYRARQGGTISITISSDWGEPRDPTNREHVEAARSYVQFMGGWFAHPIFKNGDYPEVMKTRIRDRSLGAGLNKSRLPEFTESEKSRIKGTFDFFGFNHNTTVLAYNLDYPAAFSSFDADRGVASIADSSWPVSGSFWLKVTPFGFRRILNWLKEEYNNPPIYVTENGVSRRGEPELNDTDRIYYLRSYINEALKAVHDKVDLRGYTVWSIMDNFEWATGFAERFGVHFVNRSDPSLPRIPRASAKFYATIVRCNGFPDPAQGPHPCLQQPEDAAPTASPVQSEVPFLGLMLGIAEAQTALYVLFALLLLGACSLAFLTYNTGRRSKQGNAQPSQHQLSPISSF
The assay is described as follows: Glycosidase inhibition, rat intestinal lactase. It counts as biochemical.

Assay [4] concerns the target T3, Human lysosome α-Galactosidase (Homo sapiens, UniProt P06280).
T3 sequence (P06280 32-429): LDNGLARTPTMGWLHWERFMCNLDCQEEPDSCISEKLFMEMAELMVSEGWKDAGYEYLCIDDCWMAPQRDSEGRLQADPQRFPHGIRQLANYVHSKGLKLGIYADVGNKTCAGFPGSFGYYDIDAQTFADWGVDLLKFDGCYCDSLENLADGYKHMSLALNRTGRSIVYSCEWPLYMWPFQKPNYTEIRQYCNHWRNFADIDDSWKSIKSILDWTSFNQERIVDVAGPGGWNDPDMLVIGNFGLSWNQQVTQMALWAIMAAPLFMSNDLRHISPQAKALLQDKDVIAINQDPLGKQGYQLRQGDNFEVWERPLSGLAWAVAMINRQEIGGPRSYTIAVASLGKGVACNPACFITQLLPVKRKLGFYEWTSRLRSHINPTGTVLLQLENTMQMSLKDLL
The assay is described as follows: Glycosidase inhibition, human lysosome α-galactosidase. It counts as biochemical.

The target in another assay is Rice α-Glucosidase (Oryza sativa subsp. japonica, UniProt Q653V7). The experiment in a line: Glycosidase inhibition, rice α-glucosidase. It is filed as biochemical.
Chain of Rice α-Glucosidase (Q653V7 34-885): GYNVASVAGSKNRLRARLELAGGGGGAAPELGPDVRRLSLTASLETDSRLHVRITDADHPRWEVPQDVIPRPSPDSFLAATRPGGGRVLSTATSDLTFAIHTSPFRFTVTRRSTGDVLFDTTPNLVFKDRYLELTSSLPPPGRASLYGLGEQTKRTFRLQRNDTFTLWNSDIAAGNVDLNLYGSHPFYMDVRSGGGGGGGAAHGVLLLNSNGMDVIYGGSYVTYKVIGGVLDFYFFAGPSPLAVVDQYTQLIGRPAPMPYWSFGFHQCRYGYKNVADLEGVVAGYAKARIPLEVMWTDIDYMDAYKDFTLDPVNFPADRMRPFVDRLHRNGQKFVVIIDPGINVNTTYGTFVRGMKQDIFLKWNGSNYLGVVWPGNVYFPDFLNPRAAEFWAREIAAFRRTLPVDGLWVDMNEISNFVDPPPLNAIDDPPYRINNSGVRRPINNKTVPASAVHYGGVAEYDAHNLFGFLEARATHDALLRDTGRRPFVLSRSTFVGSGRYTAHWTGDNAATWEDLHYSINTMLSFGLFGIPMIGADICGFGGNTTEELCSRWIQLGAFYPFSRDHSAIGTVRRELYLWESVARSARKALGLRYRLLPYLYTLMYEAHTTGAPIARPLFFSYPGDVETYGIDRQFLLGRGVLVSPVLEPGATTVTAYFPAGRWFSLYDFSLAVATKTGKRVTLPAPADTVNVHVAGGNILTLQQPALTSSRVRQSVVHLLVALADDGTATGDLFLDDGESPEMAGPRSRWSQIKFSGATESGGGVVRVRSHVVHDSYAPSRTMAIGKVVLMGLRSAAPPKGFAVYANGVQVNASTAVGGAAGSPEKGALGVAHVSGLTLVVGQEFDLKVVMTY

`C[C@]1(CO)NC[C@@H](O)[C@@H]1O` [4-C-Me-DAB 1D, 1,4-dideoxy-1,4-imino-4-C-methyl-D-arabinitol]: the IC50 was above 1 mM in assay [1]; 0.00074 mM on Rat intestinal maltase; above 1 mM at Snail β-Mannosidase; above 1 mM on Almond β-Glucosidase; above 1 mM in assay [2]; 0.0034 mM in assay [3]. The IC50 at Rat intestinal sucrase was 0.00041 mM; against Rat intestinal lactase, above 1 mM; in assay [4] it was above 1 mM; at Rice α-Glucosidase it was 0.0071 mM. In assay [2], the “Inhibition of glycogen phosphorylase (in words)” value (“Inhibition … (in words)” below) is reported as “no significant inhibition”. This molecule also registered a Ki at Rat intestinal sucrase of 0.00089 mM. For the same molecule, the “Mode of inhibition of rat intestinal sucrase” value was “competitive inhibitor” on Rat intestinal sucrase (listed as 1D) and “competitive” at Rat intestinal sucrase (listed as 4-C-Me-DAB).

On to `C[C@@]1(CO)NC[C@H](O)[C@H]1O` [4-C-Me-LAB 1L], for which the IC50 is above 1 mM in assay [1]; 0.0024 mM on Rat intestinal maltase; above 1 mM at Snail β-Mannosidase; above 1 mM on Almond β-Glucosidase; above 1 mM in assay [2]; 0.0051 mM in assay [3]. Moreover, the IC50 on Rat intestinal lactase was above 1 mM; in [4], above 1 mM; against Rice α-Glucosidase it was 0.0058 mM. In [2], the “Inhibition … (in words)” value was “no significant inhibition”. This molecule came in with a Ki on Rat intestinal sucrase of 0.00095 mM. Also, the “Mode of inhibition of rat intestinal sucrase” value at Rat intestinal sucrase (listed as 1L) is “non-competitive inhibitor”; on Rat intestinal sucrase (listed as 4-C-Me-LAB) it was “non-competitive”.

For `OC[C@@]1(O)CNC[C@H]1O` [isoDAB 2D], the IC50 in assay [1] is above 1 mM; at Rat intestinal maltase, 0.024 mM; at Snail β-Mannosidase it was above 1 mM; at Almond β-Glucosidase, above 1 mM; in assay [2] it was above 1 mM; in assay [3], 0.02 mM. In addition, the IC50 at Rat intestinal sucrase is 0.015 mM; against Rat intestinal lactase it was above 1 mM; in [4], above 1 mM; at Rice α-Glucosidase, 0.041 mM. For the same molecule, the “Inhibition … (in words)” value in [2] is given as “no significant inhibition”.

Regarding `OC[C@]1(O)CNC[C@@H]1O` [isoLAB 2L], the IC50 (in assay [1]; at Rat intestinal maltase; at Snail β-Mannosidase; on Almond β-Glucosidase; in assay [2]; in [3]) was above 1 mM throughout. The IC50 (at Rat intestinal sucrase; against Rat intestinal lactase; in [4]; at Rice α-Glucosidase) was above 1 mM in each case. Besides, in assay [2], the “Inhibition … (in words)” value was “no significant inhibition”.

As a reminder, the IC50 is the concentration needed to halve the response being measured. What is called Ki is the dissociation constant of the complex between target and ligand, obtained from inhibition or displacement. A higher Ki goes with a looser hold on the target.
